Assays:
[1] = In vitro intrinsic clearance after incubation with human liver microsomes (HLM); assay type: ADME, Microsome
[2] = molecular target: T1, Gonadotropin-releasing hormone receptor (Homo sapiens, UniProt P30968); assay: Binding affinity towards cloned human Gonadotropin-releasing hormone receptor expressed in RBL cells was determined by using [125I]GnRH as radioligand; assay type: cell-based
T1 sequence (P30968 whole entry): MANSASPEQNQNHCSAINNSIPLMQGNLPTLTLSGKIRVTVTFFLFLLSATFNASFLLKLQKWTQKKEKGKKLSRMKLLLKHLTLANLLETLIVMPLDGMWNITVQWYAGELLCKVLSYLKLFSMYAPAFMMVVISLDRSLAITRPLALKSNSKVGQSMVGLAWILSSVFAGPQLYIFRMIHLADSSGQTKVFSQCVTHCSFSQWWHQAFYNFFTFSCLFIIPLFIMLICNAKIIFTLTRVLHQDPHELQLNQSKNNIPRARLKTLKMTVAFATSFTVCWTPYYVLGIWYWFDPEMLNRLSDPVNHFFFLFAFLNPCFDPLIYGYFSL

Row | Structure (SMILES) | CLint scaled [1] [mL/min/kg] | Ki [2] [nM]
1 | COc1cccc(-c2c(C)n(Cc3c(F)cccc3F)c(=O)n(C[C@@H](C)N(C)Cc3ccccn3)c2=O)c1 | 1700 | 
2 | Cc1c(-c2csc(-c3ccccc3)n2)c(=O)n(C[C@H](N)c2ccccc2)c(=O)n1Cc1c(F)cccc1F |  | 26
3 | COc1ccc(Nc2nc(-c3c(C)n(Cc4c(F)cccc4F)c(=O)n(C[C@H](N)c4ccccc4)c3=O)cs2)cc1OC |  | 33
4 | Cc1ccccc1Nc1nc(-c2c(C)n(Cc3c(F)cccc3F)c(=O)n(C[C@H](N)c3ccccc3)c2=O)cs1 |  | 210
5 | Cc1c(-c2csc(Cc3ccccc3)n2)c(=O)n(C[C@H](N)c2ccccc2)c(=O)n1Cc1c(F)cccc1F |  | 9
6 | Cc1c(-c2csc(NCc3ccccc3)n2)c(=O)n(C[C@H](N)c2ccccc2)c(=O)n1Cc1c(F)cccc1F |  | 35
7 | Cc1c(-c2csc(Nc3ccccc3)n2)c(=O)n(C[C@H](N)c2ccccc2)c(=O)n1Cc1c(F)cccc1F |  | 70
8 | Cc1ccc(-c2nc(-c3c(C)n(Cc4c(F)cccc4F)c(=O)n(C[C@H](N)c4ccccc4)c3=O)cs2)cc1F |  | 49
9 | COc1ccccc1Nc1nc(-c2c(C)n(Cc3c(F)cccc3F)c(=O)n(C[C@H](N)c3ccccc3)c2=O)cs1 |  | 130
10 | Cc1nc(-c2c(C)n(Cc3c(F)cccc3F)c(=O)n(C[C@H](N)c3ccccc3)c2=O)cs1 |  | 120
11 | COc1ccc(Nc2nc(-c3c(C)n(Cc4c(F)cccc4F)c(=O)n(C[C@H](N)c4ccccc4)c3=O)cs2)cc1 |  | 42
12 | Cc1c(-c2csc(N3CCOCC3)n2)c(=O)n(C[C@H](N)c2ccccc2)c(=O)n1Cc1c(F)cccc1F |  | 1500
13 | Cc1c(-c2csc(-c3cccc(C(F)(F)F)c3)n2)c(=O)n(C[C@H](N)c2ccccc2)c(=O)n1Cc1c(F)cccc1F |  | 150
14 | CCNc1nc(-c2c(C)n(Cc3c(F)cccc3F)c(=O)n(C[C@H](N)c3ccccc3)c2=O)cs1 |  | 270
15 | Cc1ccc(-c2nc(-c3c(C)n(Cc4c(F)cccc4F)c(=O)n(C[C@H](N)c4ccccc4)c3=O)cs2)cc1 | 36 | 18
16 | Cc1c(-c2csc(-c3ccc(F)cc3)n2)c(=O)n(C[C@H](N)c2ccccc2)c(=O)n1Cc1c(F)cccc1F |  | 42

Row | Structure (SMILES) | CLint scaled [1] [mL/min/kg] | Ki [2] [nM]
17 | Cc1c(-c2csc(-c3ccccc3Cl)n2)c(=O)n(C[C@H](N)c2ccccc2)c(=O)n1Cc1c(F)cccc1F |  | 30
18 | Cc1c(-c2csc(-c3ccc(Cl)cc3)n2)c(=O)n(C[C@H](N)c2ccccc2)c(=O)n1Cc1c(F)cccc1F | 46 | 15
19 | Cc1c(-c2csc(N)n2)c(=O)n(C[C@H](N)c2ccccc2)c(=O)n1Cc1c(F)cccc1F |  | 3000
20 | Cc1c(-c2csc(-c3ccc(C(C)(C)C)cc3)n2)c(=O)n(C[C@H](N)c2ccccc2)c(=O)n1Cc1c(F)cccc1F |  | 500
21 | Cc1c(-c2ccc(Cl)cc2)c(=O)n(C[C@H](N)c2ccccc2)c(=O)n1Cc1c(F)cccc1F |  | 14
22 | Cc1c(-c2csc(-c3ccc(C(F)(F)F)cc3)n2)c(=O)n(C[C@H](N)c2ccccc2)c(=O)n1Cc1c(F)cccc1F |  | 47
23 | Cc1ccc(Nc2nc(-c3c(C)n(Cc4c(F)cccc4F)c(=O)n(C[C@H](N)c4ccccc4)c3=O)cs2)cc1 |  | 49
24 | Cc1c(-c2cccs2)c(=O)n(C[C@H](N)c2ccccc2)c(=O)n1Cc1c(F)cccc1F |  | 10
25 | Cc1c(-c2csc(Nc3ccc([N+](=O)[O-])cc3)n2)c(=O)n(C[C@H](N)c2ccccc2)c(=O)n1Cc1c(F)cccc1F |  | 160
26 | Cc1ccc(Nc2nc(-c3c(C)n(Cc4c(F)cccc4F)c(=O)n(C[C@H](N)c4ccccc4)c3=O)cs2)c(C)c1 |  | 130
27 | Cc1ccc(-c2c(C)n(Cc3c(F)cccc3F)c(=O)n(C[C@H](N)c3ccccc3)c2=O)s1 |  | 3
28 | Cc1c(-c2csc(N(C)c3ccccc3)n2)c(=O)n(C[C@H](N)c2ccccc2)c(=O)n1Cc1c(F)cccc1F |  | 34
29 | CCOC(=O)Nc1ccc(-c2nc(-c3c(C)n(Cc4c(F)cccc4F)c(=O)n(C[C@H](N)c4ccccc4)c3=O)cs2)cc1 |  | 7
30 | Cc1c(-c2ccc(Cl)s2)c(=O)n(C[C@H](N)c2ccccc2)c(=O)n1Cc1c(F)cccc1F |  | 2
31 | Cc1c(-c2csc(-c3ccc4c(c3)CCO4)n2)c(=O)n(C[C@H](N)c2ccccc2)c(=O)n1Cc1c(F)cccc1F |  | 20

Source: ChEMBL document CHEMBL1137039, “Synthesis and structure-activity relationships of uracil derived human GnRH receptor antagonists: (R)-3-[2-(2-amino)phenethyl]-1-(2,6-difluorobenzyl)-6-methyluracils containing a substituted thiophene or thiazole at C-5” (Bioorg Med Chem Lett, 2004)
